The record followed here is patent US20240368104A1, “Novel Dialkoxynaphtho[2,3-C]Furan-1(3H)-One Derivatives and Pharmaceutical Composition For Preventing or Treating Respiratory Disease or SARS-COV-2 Infection Disease, Comprising Same” (priority 2021, published 2024).

Read-outs that look alike come from different tables or passages of the source.

One data set in a line: in vitro. The following applies: African green monkey.
A further data set deals with SARS-COV-2. In words: microbe, parasite or virus in culture. As to conditions: for SI (Selectivity Index, CC50/IC50): SARS-COV-2, values >50 assumed to be 50; for IC50: read-out: SARS-COV-2 inhibition (IC50). It is filed as cell-based. Also on record: SI (Selectivity Index, CC50/IC50): unit not given here.
The mark [1] stands for this setting: Severe acute respiratory syndrome coronavirus 2, Vero cells, 24 hours infection.
[2] abbreviates: Severe acute respiratory syndrome coronavirus 2, Vero, 24 h.

By IC50 is commonly meant the concentration at which inhibition is half-maximal. Molecule `COc1cc2cc3c(c(-c4ccc5nccc(O)c5c4)c2cc1OC)C(=O)OC3` [Example 117, 9-(4-hydroxyquinolin-6-yl)-6,7-dimethoxynaphtho[2,3-c]furan-1(3H)-one] yielded a CC50 in the data set “in vitro” of more than 50 µM. Further, in the data set on SARS-COV-2, the “SI (Selectivity Index, CC50/IC50)” value was 1.0. Further, the concentration for half-maximal inhibition (IC50) in the data set on SARS-COV-2 (setting [1]) is more than 50 µM.
`CCN(C)c1ccc(-c2c3c(cc4cc(OC)c(OC)cc24)COC3=O)cn1` [Example 178, 9-(6-(ethyl(methyl)amino)pyridin-3-yl)-6,7-dimethoxynaphtho[2,3-c]furan-1(3H)-one] showed a CC50 in “in vitro” of more than 50 µM. Also, the “SI (Selectivity Index, CC50/IC50)” value in the data set with SARS-COV-2 was 1323.43. For the same molecule, in the data set on SARS-COV-2 (setting [1]), the IC50 was 0.04 µM.
The corresponding values for `COc1ncc(-c2c3c(cc4cc(OC)c(OC)cc24)COC3=O)cn1` [Example 26, 6,7-dimethoxy-9-(2-methoxypyrimidin-5-yl)naphtho[2,3-c]furan-1(3H)-one] are more than 50 µM, 9.52 and 5.25 µM.
In “in vitro”, `COCCOc1cncc(-c2c3c(cc4cc(OC)c(OC)cc24)COC3=O)c1` [Example 173, 6,7-dimethoxy-9-(5-(2-methoxyethoxy)pyridin-3-yl)naphtho[2,3-c]furan-1(3H)-one] had a CC50 of more than 50 µM. The “SI (Selectivity Index, CC50/IC50)” value in the data set with SARS-COV-2 was 1.0. For the same molecule, the IC50 in the data set on SARS-COV-2 (setting [1]) was more than 50 µM.
As to `CCCCCCCCN(CCCCCCCC)c1ncc(-c2c3c(cc4cc(OC)c(OC)cc24)COC3=O)cn1.Cl` [Example 95, 9-(2-(dioctylamino)pyrimidin-5-yl)-6,7-dimethoxynaphtho[2,3-c]furan-1(3H)-one hydrochloride], the CC50 in “in vitro” was more than 50 µM. For the same molecule, in the data set with SARS-COV-2, the “SI (Selectivity Index, CC50/IC50)” value is listed as 1.00. Moreover, the IC50 in the data set with SARS-COV-2 (setting [2]) was more than 50 µM.
For `COc1cc2cc3c(c(-c4ccc(N(C)Cc5ccccc5C(F)(F)F)nc4)c2cc1OC)C(=O)OC3` [Example 208, 6,7-dimethoxy-9-(6-(methyl(2-(trifluoromethyl)benzyl)amino)pyridin-3-yl)naphtho[2,3-c]furan-1(3H)-one], the CC50 in “in vitro” is more than 50 µM. Further, the “SI (Selectivity Index, CC50/IC50)” value in the data set with SARS-COV-2 is 18.96. In addition, the IC50 in the data set with SARS-COV-2 (setting [1]) turned out to be 2.64 µM.
In the data set “in vitro”, `COc1cc2cc3c(c(-c4cnc(N5CCOCC5)nc4)c2cc1OC)C(=O)OC3` [Example 51, 6,7-dimethoxy-9-(2-morpholinopyrimidin-5-yl)naphtho[2,3-c]furan-1(3H)-one] had a CC50 of more than 50 µM. For the same molecule, the “SI (Selectivity Index, CC50/IC50)” value with SARS-COV-2 is given as 34.12. Moreover, in the data set with SARS-COV-2 (setting [1]), the IC50 stood at 1.47 µM.
`COc1cc2cc3c(c(-c4ccc5c(O)ccnc5c4C)c2cc1OC)C(=O)OC3` [Example 154, 9-(4-hydroxy-8-methylquinolin-7-yl)-6,7-dimethoxynaphtho[2,3-c]furan-1(3H)-one] returned a CC50 in “in vitro” of more than 50 µM. Moreover, in the data set with SARS-COV-2, the “SI (Selectivity Index, CC50/IC50)” value is recorded as 1.0. Besides, the IC50 in the data set on SARS-COV-2 (setting [1]) was more than 50 µM.
In turn, `CNc1ccc(-c2c3c(cc4cc(OC)c(OC)cc24)COC3=O)cc1` [Example 246, 6,7-dimethoxy-9-(4-(methylamino)phenyl)naphtho[2,3-c]furan-1(3H)-one] displayed a CC50 in “in vitro” of more than 50 µM. Moreover, in the data set with SARS-COV-2, the “SI (Selectivity Index, CC50/IC50)” value is 15.18. Also, in the data set with SARS-COV-2 (setting [1]), the concentration for half-maximal inhibition (IC50) is 3.29 µM.
The corresponding values for `COc1cc2cc3c(c(-c4cc5c(cc4OC)OCO5)c2cc1OC)C(=O)OC3` [Example 88, 6,7-dimethoxy-9-(6-methoxybenzo[d][1,3]dioxol-5-yl)naphtho[2,3-c]furan-1(3H)-one] are more than 50 µM, 3.00 and 16.6 µM.
`CC[C@H](C)[C@H](N)C(=O)Oc1cc2c(cc1-c1c3c(cc4cc(OC)c(OC)cc14)COC3=O)OCO2` [Example 270, 6-(6,7-dimethoxy-3-oxo-1,3-dihydronaphtho[2,3-c]furan-4-yl)benzo[d][1,3]dioxol-5-yl L-isoleucinate]: the CC50 in “in vitro” is more than 50 µM. Besides, the “SI (Selectivity Index, CC50/IC50)” value in the data set on SARS-COV-2 is 122.64. Further, the IC50 in the data set on SARS-COV-2 (setting [2]) worked out at 0.41 µM.
In “in vitro”, `COc1cc2cc3c(c(-c4ccc(N5CCCCC5)nc4)c2cc1OC)C(=O)OC3` [Example 123, 6,7-dimethoxy-9-(6-(piperidin-1-yl)pyridin-3-yl)naphtho[2,3-c]furan-1(3H)-one] registered a CC50 of more than 50 µM. Further, the “SI (Selectivity Index, CC50/IC50)” value in the data set on SARS-COV-2 is reported as 145.26. The IC50 in the data set on SARS-COV-2 (setting [1]) is 0.34 µM.
`COc1cc2cc3c(c(-c4ccc(N(C)c5nc6ccccc6s5)nc4)c2cc1OC)C(=O)OC3.Cl` [Example 225, 9-(6-(benzo[d]thiazol-2-yl(methyl)amino)pyridin-3-yl)-6,7-dimethoxynaphtho[2,3-c]furan-1(3H)-one] came in with a CC50 in the data set “in vitro” of 32.4 µM. Moreover, the “SI (Selectivity Index, CC50/IC50)” value with SARS-COV-2 stood at 0.65. The IC50 with SARS-COV-2 (setting [2]) was more than 50 µM.
In “in vitro”, `COc1cc2cc3c(c(-c4ccc(N(C)CC(OC)OC)nc4)c2cc1OC)C(=O)OC3` [Example 162, 9-(6-((2,2-dimethoxyethyl)(methyl)amino)pyridin-3-yl)-6,7-dimethoxynaphtho[2,3-c]furan-1(3H)-one] yielded a CC50 of more than 50 µM. In addition, the “SI (Selectivity Index, CC50/IC50)” value in the data set with SARS-COV-2 worked out at 11.63. Further, the IC50 in the data set on SARS-COV-2 (setting [1]) amounted to 4.3 µM.
On the same counts, the results for `COc1cc2cc3c(c(-c4ccc(N(C)C5CCCC5)nc4)c2cc1OC)C(=O)OC3` [Example 177, 9-(6-(cyclopentyl(methyl)amino)pyridin-3-yl)-6,7-dimethoxynaphtho[2,3-c]furan-1(3H)-one] are more than 50 µM, 180.12 and 0.28 µM.
On the same counts, the results for `COc1cc2cc3c(c(-c4ccc(N5CCCC(c6cccc(C)c6)C5)nc4)c2cc1OC)C(=O)OC3` (stereo not drawn) [Example 202, 6,7-dimethoxy-9-(6-(3-(m-tolyl)piperidin-1-yl)pyridin-3-yl)naphtho[2,3-c]furan-1(3H)-one] are 38.4 µM, 38.01 and 1.01 µM.
In the data set “in vitro”, `COc1cc2c(OC)c3c(c(-c4ccc(N5CCOCC5)nc4)c2cc1OC)COC3=O` [Example 267, 6,7,9-trimethoxy-4-(6-morpholinopyridin-3-yl)naphtho[2,3-c]furan-1(3H)-one] registered a CC50 of more than 50 µM. The “SI (Selectivity Index, CC50/IC50)” value in the data set with SARS-COV-2 amounted to 1.00. In addition, in the data set on SARS-COV-2 (setting [1]), the IC50 was more than 50 µM.
For `COc1cc2cc3c(c(-c4cnc(N5CCC[C@H]5CO)nc4)c2cc1OC)C(=O)OC3.Cl` [Example 83, (S)-9-(2-(2-(hydroxymethyl)pyrrolidin-1-yl)pyrimidin-5-yl)-6,7-dimethoxynaphtho[2,3-c]furan-1(3H)-one hydrochloride], in “in vitro”, the CC50 is more than 50 µM. Further, in the data set on SARS-COV-2, the “SI (Selectivity Index, CC50/IC50)” value is given as 1.65. In the data set with SARS-COV-2 (setting [2]), the IC50 was 30.3 µM.
The corresponding values for `COc1cc2cc3c(c(-c4ccc(N(C)CC5CC5)nc4)c2cc1OC)C(=O)OC3.Cl` [Example 183, 9-(6-((cyclopropylmethyl)(methyl)amino)pyridin-3-yl)-6,7-dimethoxynaphtho[2,3-c]furan-1(3H)-one] are more than 50 µM, 124.83 and 0.4 µM.
The corresponding values for `COc1cc2cc3c(c(-c4ccc(N(C)C)c([N+](=O)[O-])c4)c2cc1OC)C(=O)OC3.Cl` [Example 217, 9-(4-(dimethylamino)-3-nitrophenyl)-6,7-dimethoxynaphtho[2,3-c]furan-1(3H)-one] are more than 50 µM, 10.06 and 4.97 µM.
